Test system: human sebaceous glands (hSGs)
Test: Sebum content of ex-vivo cultured human sebaceous glands (lipids/proteins ratio)
Type: cell-based
Details: 5 μM, positive control; for Sebum content in hSGs, Average as % ratio of the control group: day 6 of organ culture
Procedure: At the end of the culture time, the sebum was extracted and quantified from each experimental group of hSGs and then normalized by the proteins extracted from the residual hSG material (mg lipids/mg proteins). As a result, the biological activity of the tested compounds is inferred by comparing the lipids/proteins ratio of the treated glands with that of the control group. Using micro-scissors and tweezers, hSGs were isolated from the pilosebaceous units of a scalp skin sample. […] After 24 hours of culture the viability of the glands was assessed via resazurin assay and then, having attested their good viability, the culture medium was substituted with the same medium supplemented with experimental extracts, whereas the control group received again the standard medium. The culture medium was renewed every other day. At day six of the organ culture, after having preventively verified the good viability of the hSGs via resazurine assay, each group of hGSs was collected and analyzed for quantifying the sebum content. […] Methods are described in detail in WO2016020339 A8. The amounts of normalized lipids obtained from the treated groups, i.e. the sebum produced by each group of hSGs, were expressed in percentages with respect to the value obtained from the control group, in order to point out the regulatory effect performed by the experimental treatment.

COc1cc(CNC(=O)CCCC/C=C/C(C)C)ccc1O [capsaicin, Capsaicin]
Reduction of the sebum content of the hSGs in comparison with the control group (Table 6 experiment): 26.5%
Sebum content in hSGs, Average as % ratio of the control group (Table 6 experiment): 73.5%
Sebum content in hSGs, Average as % ratio of the control group (Table 7 experiment): 88.3%

From patent US20210008137A1, “EXTRACTS OF COPRINUS COMATUS AND THEIR USE FOR REGULATING THE PILOSEBACEOUS UNIT IN A HUMAN” (Symrise AG, priority 2017, published 2021)
